Source: US20150105252A1, “SUBSTITUTED PYRAZOLES AS HERBICIDES” (E I DU PONT DE NEMOURS AND COMPANY, priority 2013, published 2015)

Assays:
ducksalad = experiment: Test C flooded paddy test; format: in vivo, Heteranthera limosa; conditions: Flood
How it was run: (§1)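 Flooded 3 cm over soil; compound into paddy water; depth kept constant. Greenhouse 13–15 d.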

radish, wild = experiment: Test D preemergence; format: in vivo, Raphanus raphanistrum; conditions: for Plant response rating, Radish, Wild: Preemergence, scale 0 to 100
How it was run: (§2)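 Formulation was a non-phytotoxic solvent mixture plus surfactant, applied either to soil at planting (silt loam, preemergence) or to foliage of 2–18 cm plants (postemergence). Visual evaluation versus controls followed at 14–21 days, scored 0–100.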

pigweed [1] = experiment: Test D postemergence; format: in vivo, Amaranthus retroflexus; conditions: scale 0 to 100
How it was run: as §2

barley, winter = experiment: Test D preemergence; format: in vivo, Hordeum vulgare; conditions: for Plant response rating, Barley, Winter: Preemergence, scale 0 to 100
How it was run: as §2

barley, spring = experiment: Test D preemergence; format: in vivo, Hordeum vulgare; conditions: for Plant response rating, Barley, Spring: Preemergence, scale 0 to 100
How it was run: as §2

chamomile [2] = experiment: Test D postemergence; format: in vivo, Matricaria inodora; conditions: scale 0 to 100
How it was run: as §2

barnyardgrass = experiment: Test C flooded paddy test; format: in vivo, Echinochloa crus-galli; conditions: Flood
How it was run: as §1

pigweed [3] = experiment: Test D preemergence; format: in vivo, Amaranthus retroflexus; conditions: for Plant response rating, Pigweed: Preemergence, scale 0 to 100
How it was run: as §2

chickweed = experiment: Test D preemergence; format: in vivo, Stellaria media; conditions: for Plant response rating, Chickweed: Preemergence, scale 0 to 100
How it was run: as §2

blackgrass = experiment: Test D preemergence; format: in vivo, Alopecurus myosuroides; conditions: for Plant response rating, Blackgrass: Preemergence, scale 0 to 100
How it was run: as §2

windgrass = experiment: Test D postemergence; format: in vivo, Apera spica-venti; conditions: scale 0 to 100
How it was run: as §2

field violet = experiment: Test D postemergence; format: in vivo, Viola arvensis; conditions: scale 0 to 100
How it was run: as §2

galium = experiment: Test D postemergence; format: in vivo, Galium aparine; conditions: scale 0 to 100
How it was run: as §2

chamomile [4] = experiment: Test D preemergence; format: in vivo, Matricaria inodora; conditions: for Plant response rating, Chamomile: Preemergence, scale 0 to 100
How it was run: as §2

rice = experiment: Test C flooded paddy test; format: in vivo, Oryza sativa; conditions: Flood
How it was run: as §1

sedge, umbrella = experiment: Test C flooded paddy test; format: in vivo, Cyperus difformis; conditions: Flood
How it was run: as §1

speedwell = experiment: Test D preemergence; format: in vivo, Veronica persica; conditions: for Plant response rating, Speedwell: Preemergence, scale 0 to 100
How it was run: as §2

oat, wild = experiment: Test D preemergence; format: in vivo, Avena fatua; conditions: for Plant response rating, Oat, Wild: Preemergence, scale 0 to 100
How it was run: as §2

[5] = 31 g ai/ha, scale 0 to 100 (0 no effect, 100 complete control)
[6] = 62 g ai/ha, scale 0 to 100 (0 no effect, 100 complete control)
[7] = 16 g ai/ha, taken as preemergence

O=C(NC1CC1)c1cc(CCF)n(Cc2ccnc(C(F)(F)F)c2)n1 [Compound 176]
95: Plant response rating, Ducksalad (ducksalad; 125 g ai/ha, scale 0 to 100) | Plant response rating, Sedge, Umbrella (sedge, umbrella; 125 g ai/ha, scale 0 to 100)
40: Plant response rating, Pigweed (pigweed [3]; 62 g ai/ha) | Plant response rating, Sedge, Umbrella (sedge, umbrella; [6]) | Plant response rating, Oat, Wild (oat, wild; 125 g ai/ha)
100: Plant response rating, Ducksalad (ducksalad; 250 g ai/ha, scale 0 to 100) | Plant response rating, Radish, Wild (radish, wild; 125 g ai/ha) | Plant response rating, Pigweed (pigweed [3]; 125 g ai/ha) | Plant response rating, Chickweed (chickweed; 125 g ai/ha) | Plant response rating, Sedge, Umbrella (sedge, umbrella; 250 g ai/ha, scale 0 to 100) | Plant response rating, Speedwell (speedwell; 62 g ai/ha) | Plant response rating, Speedwell (speedwell; 125 g ai/ha)
10: Plant response rating, Chamomile (chamomile [2]; Postemergence, 16 g ai/ha) | Plant response rating, Barnyardgrass (barnyardgrass; 250 g ai/ha, scale 0 to 100) | Plant response rating (scale 0 to 100), Pigweed (pigweed [3]; [7]) | Plant response rating (scale 0 to 100), Chickweed (chickweed; [7]) | Plant response rating, Blackgrass (blackgrass; 62 g ai/ha) | Plant response rating, Chamomile (chamomile [4]; 62 g ai/ha) | Plant response rating, Oat, Wild (oat, wild; 62 g ai/ha)
65: Pigweed plant response rating (pigweed [1]; Postemergence, 31 g ai/ha) | Pigweed plant response rating (pigweed [1]; postemergence, 62 g ai/ha) | Galium plant response rating (galium; Postemergence, 31 g ai/ha) | Galium plant response rating (galium; Postemergence, 125 g ai/ha) | Galium plant response rating (galium; postemergence, 62 g ai/ha)
55: Plant response rating, Pigweed (pigweed [1]; Postemergence, 16 g ai/ha) | Plant response rating, Galium (galium; Postemergence, 16 g ai/ha)
70: Plant response rating, Ducksalad (ducksalad; [6]) | Pigweed plant response rating (pigweed [1]; Postemergence, 125 g ai/ha) | Field Violet plant response rating (field violet; Postemergence, 125 g ai/ha)
5: Plant response rating, Windgrass (windgrass; Postemergence, 16 g ai/ha) | Plant response rating (scale 0 to 100), Chamomile (chamomile [4]; [7]) | Plant response rating, Chamomile (chamomile [4]; 31 g ai/ha)
15: Plant response rating (scale 0 to 100), Radish, Wild (radish, wild; [7]) | Chamomile plant response rating (chamomile [2]; Postemergence, 31 g ai/ha) | Chamomile plant response rating (chamomile [2]; postemergence, 62 g ai/ha) | Windgrass plant response rating (windgrass; Postemergence, 31 g ai/ha) | Windgrass plant response rating (windgrass; postemergence, 62 g ai/ha) | Plant response rating (scale 0 to 100), Speedwell (speedwell; [7])
75: Plant response rating, Radish, Wild (radish, wild; 62 g ai/ha)
20: Plant response rating, Barnyardgrass (barnyardgrass; 125 g ai/ha, scale 0 to 100) | Plant response rating, Blackgrass (blackgrass; 125 g ai/ha) | Plant response rating, Rice (rice; 125 g ai/ha, scale 0 to 100) | Plant response rating, Rice (rice; 250 g ai/ha, scale 0 to 100)
85: Plant response rating, Chickweed (chickweed; 62 g ai/ha)
50: Plant response rating, Chickweed (chickweed; 31 g ai/ha) | Field Violet plant response rating (field violet; Postemergence, 31 g ai/ha) | Field Violet plant response rating (field violet; postemergence, 62 g ai/ha) | Plant response rating, Chamomile (chamomile [4]; 125 g ai/ha)
0: Plant response rating, Ducksalad (ducksalad; [5]) | Plant response rating (scale 0 to 100), Barley, Winter (barley, winter; [7]) | Plant response rating, Barley, Winter (barley, winter; 31 g ai/ha) | Plant response rating, Barley, Winter (barley, winter; 62 g ai/ha) | Plant response rating, Barley, Winter (barley, winter; 125 g ai/ha) | Plant response rating (scale 0 to 100), Barley, Spring (barley, spring; 16 g ai/ha, taken as preemergence, 0 = no effect, 100 = complete control) | Plant response rating, Barley, Spring (barley, spring; 31 g ai/ha) | Plant response rating, Barley, Spring (barley, spring; 62 g ai/ha) | Plant response rating, Barley, Spring (barley, spring; 125 g ai/ha) | Plant response rating, Barnyardgrass (barnyardgrass; [5]) | Plant response rating, Barnyardgrass (barnyardgrass; [6]) | Plant response rating (scale 0 to 100), Blackgrass (blackgrass; [7]) | Plant response rating, Blackgrass (blackgrass; 31 g ai/ha) | Plant response rating, Rice (rice; [5]) | Plant response rating, Rice (rice; [6]) | Plant response rating, Sedge, Umbrella (sedge, umbrella; [5]) | Plant response rating (scale 0 to 100), Oat, Wild (oat, wild; [7])
35: Chamomile plant response rating (chamomile [2]; Postemergence, 125 g ai/ha) | Plant response rating, Field Violet (field violet; Postemergence, 16 g ai/ha)
25: Windgrass plant response rating (windgrass; Postemergence, 125 g ai/ha)
